Each structure is given as a SMILES string.

The assay deals with PDE4D (Homo sapiens, UniProt Q08499). The experiment in a line: recombinant PDE4 activity assay, [3H]cAMP hydrolysis, dose-response. Type of assay: biochemical.
PDE4D, sequence (Q08499 whole entry): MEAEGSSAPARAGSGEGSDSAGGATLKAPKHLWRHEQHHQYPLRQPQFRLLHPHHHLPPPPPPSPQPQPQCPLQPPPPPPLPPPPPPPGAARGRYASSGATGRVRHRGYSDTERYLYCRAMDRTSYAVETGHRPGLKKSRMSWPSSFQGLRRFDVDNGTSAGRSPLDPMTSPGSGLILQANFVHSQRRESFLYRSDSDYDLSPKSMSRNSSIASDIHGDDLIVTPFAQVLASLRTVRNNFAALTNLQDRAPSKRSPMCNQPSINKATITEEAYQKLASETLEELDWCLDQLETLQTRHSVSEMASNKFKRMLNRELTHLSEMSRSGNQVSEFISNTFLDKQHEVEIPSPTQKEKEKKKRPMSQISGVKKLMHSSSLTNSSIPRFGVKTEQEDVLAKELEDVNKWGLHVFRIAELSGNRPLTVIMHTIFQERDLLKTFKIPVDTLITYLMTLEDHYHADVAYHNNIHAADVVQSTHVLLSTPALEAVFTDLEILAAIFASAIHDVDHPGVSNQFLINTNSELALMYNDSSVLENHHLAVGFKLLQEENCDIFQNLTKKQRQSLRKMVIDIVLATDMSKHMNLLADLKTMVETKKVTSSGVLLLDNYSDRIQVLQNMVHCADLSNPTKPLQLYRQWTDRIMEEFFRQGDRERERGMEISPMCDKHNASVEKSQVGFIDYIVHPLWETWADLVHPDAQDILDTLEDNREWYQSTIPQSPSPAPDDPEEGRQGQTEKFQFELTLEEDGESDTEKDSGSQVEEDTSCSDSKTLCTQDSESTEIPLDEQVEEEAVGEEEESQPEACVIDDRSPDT

In the case of `COc1ccc(C(=O)Nc2ccccc2C)cc1OC` [CBU91, 3,4-dimethoxy-N-(o-tolyl)benzamide], the IC50 was about 450 nM.
